Measurements as given in patent US20250296959A1, “B7-H3 TARGETING PEPTIDES AND CONSTRUCTS THEREOF” (Mariana Oncology Inc., priority 2024, published 2025).
Starred links: 1 amine or outer side, 2 acyl side, 3 side chain; linkers in the order of their positions; H or OH if unused. Positions of bridges follow the written chain, without caps; N, C: chain ends. Non-standard residues stand in square brackets, D forms with d. Residues, ends and D or L forms follow the SMILES beside them. Groups on a side chain read outwards from the residue. *: point of attachment. X7 = O=C(O)CN1CCN(CC(=O)O)CCN(CC(=O)NCCOCCOCCOCCOCCOCCOCCOCCOCC(=O)*)CCN(CC(=O)O)CC1; X9 = CC(=O)N[C@@H](CCC(C)C)C(O)N([C@@H](Cc1ccc(O)cc1)C(=O)[*:2])[*:1]; Ala(1-CH2CO2H-4-piperidyl) = N[C@@H](CC1CCN(CC(=O)O)CC1)C(=O)O; Ala(piperidin-4-yl) = O=C([C@H](CC1CCN([*:3])CC1)N[*:1])[*:2]; DOTA = O=C(O)CN1CCN(CC(=O)O)CCN(CC(=O)*)CCN(CC(=O)O)CC1; Trp(5-F) = N[C@@H](Cc1c[nH]c2ccc(F)cc12)C(=O)O; Trp(7-aza) = N[C@@H](Cc1c[nH]c2ncccc12)C(=O)O; γGlu = O=C(O)[C@H](CCC(=O)[*:2])N[*:1]; 1Nal = N[C@@H](Cc1cccc2ccccc12)C(=O)O; Ala(4-THP) = N[C@@H](CC1CCOCC1)C(=O)O; AEF = NCCOc1ccc(C[C@H](N)C(=O)O)cc1; Val(3-OH) = CC(C)(O)[C@H](N)C(=O)O; Trx = NC[C@H]1CC[C@H](C(=O)O)CC1; 4Pal = N[C@@H](Cc1ccncc1)C(=O)O; Cha = N[C@@H](CC1CCCCC1)C(=O)O; Tle = CC(C)(C)[C@H](N)C(=O)O; hLeu = CC(C)CC[C@H](N)C(=O)O; NMeS = CN[C@@H](CO)C(=O)O; Nle = CCCC[C@H](N)C(=O)O; PEG2 = NCCOCCOCCC(=O)O; AEA = NCCOCC(=O)O

Each compound was assayed against T1, human 4lg B7-H3 (Homo sapiens, UniProt Q5ZPR3) (assay: Affinity determination by surface plasmon resonance (SPR) to 4Ig B7-H3). Conditions: SPR KD—25° C., 4Ig B7-H3; 25° C. flow cell temperature.
T1 sequence (Q5ZPR3 29-534): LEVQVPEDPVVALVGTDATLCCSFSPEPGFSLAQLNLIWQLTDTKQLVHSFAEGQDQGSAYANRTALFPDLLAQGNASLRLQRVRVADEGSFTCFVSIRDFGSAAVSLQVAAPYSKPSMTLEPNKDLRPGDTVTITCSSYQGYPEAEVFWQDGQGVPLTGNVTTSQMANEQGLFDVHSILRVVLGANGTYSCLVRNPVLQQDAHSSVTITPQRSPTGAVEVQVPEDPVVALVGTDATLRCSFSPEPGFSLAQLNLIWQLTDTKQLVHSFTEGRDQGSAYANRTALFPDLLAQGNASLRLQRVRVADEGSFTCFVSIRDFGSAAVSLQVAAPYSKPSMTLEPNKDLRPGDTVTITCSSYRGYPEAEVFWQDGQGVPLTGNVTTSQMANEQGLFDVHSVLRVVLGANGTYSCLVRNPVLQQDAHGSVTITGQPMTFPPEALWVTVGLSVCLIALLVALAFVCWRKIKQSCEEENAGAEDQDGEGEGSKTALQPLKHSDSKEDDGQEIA

Kd	Compound
1 to 10 nM	CC(=O)N[C@@H](CCC(C)C)C(=O)N[C@@H](Cc1ccc(O)cc1)C(=O)N[C@H]1CSSC[C@@H](C(=O)N[C@@H](Cc2cccc3ccccc23)C(=O)N[C@@H](Cc2ccccc2)C(=O)N(C)[C@@H](CO)C(=O)N[C@H](CCCCNC(=O)CN2CCN(CC(=O)O)CCN(CC(=O)O)CCN(CC(=O)O)CC2)C(N)=O)NC(=O)[C@H](Cc2ccc(O)cc2)NC(=O)[C@H](C(C)C)NC(=O)[C@H](CC(=O)O)NC(=O)[C@H](Cc2ccncc2)NC(=O)[C@H](CCCCN)NC(=O)CNC(=O)[C@H](C(C)(C)C)NC1=O [compound 219, Ac-hLeu-Y-C-Tbg-G-K-4PyA-D-V-Y-C-1Nal-F-NMeSer-dLys(DOTA)-CONH2] (Ac-[hLeu]YC[Tle]GK[4Pal]DVYC[1Nal]F[NMeS][dK](DOTA)-NH2; disulfide 3-11)
10 to 100 nM	CCCC[C@H](NC(C)=O)C(=O)N[C@@H](Cc1ccc(O)cc1)C(=O)N[C@H]1CSSC[C@@H](C(=O)N[C@@H](Cc2c[nH]c3ncccc23)C(=O)N[C@@H](Cc2ccccc2)C(=O)N[C@H](C(=O)N[C@H](CCCCNC(=O)CN2CCN(CC(=O)O)CCN(CC(=O)O)CCN(CC(=O)O)CC2)C(N)=O)[C@@H](C)O)NC(=O)[C@H](Cc2ccc(O)cc2)NC(=O)[C@H](C(C)C)NC(=O)[C@H](CC(=O)O)NC(=O)[C@H](Cc2ccc(O)cc2)NC(=O)[C@H](CCCCN)NC(=O)CNC(=O)[C@H](C(C)C)NC1=O [compound 134, Ac-Nle-Y-C-V-G-K-Y-D-V-Y-C-7NW-F-Thr-dLys(DOTA)-CONH2] (Ac-[Nle]YCVGKYDVYC[Trp(7-aza)]FT[dK](DOTA)-NH2; disulfide 3-11)
< 1 nM	CC(=O)N[C@@H](CCC(C)C)C(=O)N[C@@H](Cc1ccc(O)cc1)C(=O)N[C@H]1CSSC[C@@H](C(=O)N[C@@H](Cc2c[nH]c3ccc(F)cc23)C(=O)N[C@@H](Cc2ccccc2)C(=O)N[C@H](C(=O)N[C@H](CCCCNC(=O)CN2CCN(CC(=O)O)CCN(CC(=O)O)CCN(CC(=O)O)CC2)C(=O)O)[C@@H](C)O)NC(=O)[C@H](Cc2ccc(O)cc2)NC(=O)[C@H](C(C)C)NC(=O)[C@H](CC(=O)O)NC(=O)[C@H](CC2CCOCC2)NC(=O)[C@H](CCCCN)NC(=O)CNC(=O)[C@H](C(C)C)NC1=O [compound 331, Ac-hLeu-Y-C-V-G-K-ThpA-D-V-Y-C-5FW-F-Thr-dLys(DOTA)-COOH] (Ac-[hLeu]YCVGK[Ala(4-THP)]DVYC[Trp(5-F)]FT[dK](DOTA)-OH; disulfide 3-11)
1 to 10 nM	CC(=O)N[C@@H](CCC(C)C)C(O)N[C@@H](Cc1ccc(O)cc1)C(=O)N[C@H]1CSSC[C@@H](C(=O)N[C@@H](Cc2cccc3ccccc23)C(=O)N[C@@H](Cc2ccccc2)C(=O)N2CCC[C@H]2C(=O)N[C@H](CCCCNC(=O)COCCOCCOCCOCCOCCOCCOCCOCCNC(=O)CN2CCN(CC(=O)O)CCN(CC(=O)O)CCN(CC(=O)O)CC2)C(N)=O)NC(=O)[C@H](Cc2ccc(O)cc2)NC(=O)[C@H](C(C)C)NC(=O)[C@H](CC(=O)O)NC(=O)[C@H](CC2CCCCC2)NC(=O)[C@H](CC2CCNCC2)NC(=O)CNC(=O)[C@H](C(C)(C)C)NC1=O (stereo partly drawn) [compound 281, Ac-hLeu-Y-C-Tbg-G-PipAla-CHA-D-V-Y-C-1Nal-F-Pro-dLys(PEG8-DOTA)-CONH2] (H-[X9]C[Tle]G[Ala(piperidin-4-yl)][Cha]DVYC[1Nal]FP[dK](X7)-NH2; disulfide 2-10)
10 to 100 nM	CCCC[C@H](NC(C)=O)C(=O)N[C@@H](Cc1ccc(O)cc1)C(=O)N[C@H]1CSSC[C@@H](C(=O)N[C@@H](Cc2c[nH]c3ccccc23)C(=O)N[C@@H](Cc2ccccc2)C(=O)N[C@@H](CCC(N)=O)C(=O)O)NC(=O)[C@H](Cc2ccc(O)cc2)NC(=O)[C@H](C(C)C)NC(=O)[C@H](CC(=O)O)NC(=O)[C@H](Cc2ccc(O)cc2)NC(=O)[C@H](CCCCN)NC(=O)CNC(=O)[C@H](C(C)C)NC1=O [compound 35, Ac-Nle-Y-C-V-G-K-Y-D-V-Y-C-W-F-gE-CONH2]
< 1 nM	CC(=O)N[C@@H](CCC(C)C)C(=O)N[C@@H](Cc1ccc(O)cc1)C(=O)N[C@H]1CSSC[C@@H](C(=O)N[C@@H](Cc2c[nH]c3ccc(F)cc23)C(=O)N[C@@H](Cc2ccccc2)C(=O)N2CCC[C@H]2C(N)=O)NC(=O)[C@H](Cc2ccc(O)cc2)NC(=O)[C@H](C(C)C)NC(=O)[C@H](CC(=O)O)NC(=O)[C@H](Cc2ccc(OCCNC(=O)CN3CCN(CC(=O)O)CCN(CC(=O)O)CCN(CC(=O)O)CC3)cc2)NC(=O)[C@H](CC2CCNCC2)NC(=O)CNC(=O)[C@H](C(C)C)NC1=O [compound 301, Ac-hLeu-Y-C-V-G-PipAla-AEF(DOTA)-D-V-Y-C-5FW-F-Pro-CONH2] (Ac-[hLeu]YCVG[Ala(piperidin-4-yl)][AEF](DOTA)DVYC[Trp(5-F)]FP-NH2; disulfide 3-11)
1 to 10 nM	CCCC[C@H](NC(C)=O)C(=O)N[C@@H](Cc1ccc(O)cc1)C(=O)N[C@H]1CSSC[C@@H](C(=O)N[C@@H](Cc2c[nH]c3ccc(F)cc23)C(=O)N[C@@H](Cc2ccccc2)C(=O)N[C@H](C(=O)N[C@H](CCCCNC(=O)CN2CCN(CC(=O)O)CCN(CC(=O)O)CCN(CC(=O)O)CC2)C(N)=O)[C@@H](C)O)NC(=O)[C@H](Cc2ccc(O)cc2)NC(=O)[C@H](C(C)C)NC(=O)[C@H](CC(=O)O)NC(=O)[C@H](Cc2ccc(O)cc2)NC(=O)[C@H](CCCCN)NC(=O)CNC(=O)[C@H](C(C)C)NC1=O [compound 133, Ac-Nle-Y-C-V-G-K-Y-D-V-Y-C-5FW-F-Thr-dLys(DOTA)-CONH2] (Ac-[Nle]YCVGKYDVYC[Trp(5-F)]FT[dK](DOTA)-NH2; disulfide 3-11)

Same assay, conditions: SPR KD—37° C., 4Ig B7-H3; 37° C. flow cell temperature

Kd	Compound
10 to 100 nM	CCCC[C@H](NC(=O)[C@H](Cc1c[nH]c2ccc(F)cc12)NC(=O)[C@@H]1CSSC[C@H](NC(=O)[C@H](Cc2ccc(O)cc2)NC(=O)[C@H](CCC(C)C)NC(C)=O)C(=O)N[C@@H](C(C)(C)C)C(=O)NCC(=O)N[C@@H](CC2CCN(CC(=O)O)CC2)C(=O)N[C@@H](CC2CCOCC2)C(=O)N[C@@H](CC(=O)O)C(=O)N[C@@H](C(C)C)C(=O)N[C@@H](Cc2ccc(O)cc2)C(=O)N1)C(=O)N1CCC[C@H]1C(=O)N[C@H](CCCCNC(=O)CN1CCN(CC(=O)O)CCN(CC(=O)O)CCN(CC(=O)O)CC1)C(=O)O [compound 321, Ac-hLeu-Y-C-Tbg-G-[Pip(CH2CO2H)Ala]-ThpA-D-V-Y-C-5FW-Nle-Pro-dLys(DOTA)-COOH] (Ac-[hLeu]YC[Tle]G[Ala(1-CH2CO2H-4-piperidyl)][Ala(4-THP)]DVYC[Trp(5-F)][Nle]P[dK](DOTA)-OH; disulfide 3-11)
< 1 nM	CC(=O)N[C@@H](CCC(C)C)C(=O)N[C@@H](Cc1ccc(O)cc1)C(=O)N[C@H]1CSSC[C@@H](C(=O)N[C@@H](Cc2c[nH]c3ccc(F)cc23)C(=O)N[C@@H](Cc2ccccc2)C(=O)N[C@H](C(=O)N[C@H](CCCCNC(=O)CC[C@H](NC(=O)[C@H]2CC[C@H](CNC(=O)CN3CCN(CC(=O)O)CCN(CC(=O)O)CCN(CC(=O)O)CC3)CC2)C(=O)O)C(=O)O)C(C)(C)O)NC(=O)[C@H](Cc2ccc(O)cc2)NC(=O)[C@H](C(C)C)NC(=O)[C@H](CC(=O)O)NC(=O)[C@H](CC2CCOCC2)NC(=O)[C@H](CC2CCNCC2)NC(=O)CNC(=O)[C@H](C(C)(C)C)NC1=O [compound 481, Ac-hLeu-Y-C-Tbg-G-PipAla-ThpA-D-V-Y-C-5FW-F-hydroxyVal-dLys(gE-tranexamate-DOTA)-COOH] (Ac-[hLeu]YC[Tle]G[Ala(piperidin-4-yl)][Ala(4-THP)]DVYC[Trp(5-F)]F[Val(3-OH)][dK]([γGlu-Trx-DOTA])-OH; disulfide 3-11)
< 1 nM	CC(=O)N[C@@H](CCC(C)C)C(=O)N[C@@H](Cc1ccc(O)cc1)C(=O)N[C@H]1CSSC[C@@H](C(=O)N[C@@H](Cc2c[nH]c3ccc(F)cc23)C(=O)N[C@@H](Cc2ccccc2)C(=O)N[C@H](C(=O)N[C@H](CCC(=O)O)C(N)=O)C(C)(C)O)NC(=O)[C@H](Cc2ccc(O)cc2)NC(=O)[C@H](C(C)C)NC(=O)[C@H](CC(=O)O)NC(=O)[C@H](CC2CCN(C(=O)CCOCCOCCNC(=O)CN3CCN(CC(=O)O)CCN(CC(=O)O)CCN(CC(=O)O)CC3)CC2)NC(=O)[C@H](CC2CCNCC2)NC(=O)CNC(=O)[C@H](C(C)(C)C)NC1=O [Cpd #458, Ac-hLeu-Y-C-Tbg-G-PipAla-Pip(PEG2-DOTA)Ala-D-V-Y-C-5FW-F-hydroxyVal-dGlu-CONH2] (Ac-[hLeu]YC[Tle]G[Ala(piperidin-4-yl)][Ala(piperidin-4-yl)]([PEG2-DOTA])DVYC[Trp(5-F)]F[Val(3-OH)][dE]-NH2; disulfide 3-11)
1 to 10 nM	CC(C)CC[C@H](NC(=O)COCCNC(=O)[C@H](CCC(=O)O)NC(=O)CN1CCN(CC(=O)O)CCN(CC(=O)O)CCN(CC(=O)O)CC1)C(=O)N[C@@H](Cc1ccc(O)cc1)C(=O)N[C@H]1CSSC[C@@H](C(=O)N[C@@H](Cc2c[nH]c3ccc(F)cc23)C(=O)N[C@@H](Cc2ccccc2)C(=O)N[C@H](C(N)=O)C(C)(C)O)NC(=O)[C@H](Cc2ccc(O)cc2)NC(=O)[C@H](C(C)C)NC(=O)[C@H](CC(=O)O)NC(=O)[C@H](CC2CCOCC2)NC(=O)[C@H](CCCCN)NC(=O)CNC(=O)[C@H](C(C)(C)C)NC1=O [compound 392, DOTA-Glu-AEA-hLeu-Y-C-Tbg-G-K-ThpA-D-V-Y-C-5FW-F-hydroxyVal-CONH2] ({DOTA}-E[AEA][hLeu]YC[Tle]GK[Ala(4-THP)]DVYC[Trp(5-F)]F[Val(3-OH)]-NH2; disulfide 5-13)
